Data from publication PMC11995724, “Antibiotic target discovery by integrated phenotypic and activity-based profiling of electrophilic fragments” (Cell chemical biology, 2025).
Counter-ions that a name gives are not always drawn.

Assay: in vitro
Conditions: human, hek293t cells

SMILES: O=C(CCl)NCCS(=O)(=O)N1CCc2ccccc21 [6-H04, 2-chloro-N-[2-(2,3-dihydro-1H-indole-1-sulfonyl)ethyl]acetamide]
- viability at 48 h, 25 µM: 14.1%

SMILES: CC1CCCN(C(=O)C(NC(=O)CCl)c2cnn(C)c2)C1 (stereo not drawn) [6-H05, 2-chloro-N-[1-(1-methyl-1H-pyrazol-4-yl)-2-(3-methylpiperidin-1-yl)-2-oxoethyl]acetamide]
- viability at 48 h, 25 µM: 104%

SMILES: O=C(CCl)N(Cc1ccc(Cl)c([N+](=O)[O-])c1)c1ccccc1 [6-H06, 2-chloro-N-[(4-chloro-3-nitrophenyl)methyl]-N-phenylacetamide]
- viability at 48 h, 25 µM: 0.976%

SMILES: Cc1ccc2[nH]c3c(c2c1)CCCC3N(C)C(=O)CCl (stereo not drawn) [6-H07, 2-chloro-N-methyl-N-(6-methyl-2,3,4,9-tetrahydro-1H-carbazol-1-yl)acetamide]
- viability at 48 h, 25 µM: 0.1%

SMILES: O=C(CCl)NCc1cc(C(F)F)no1 [6-H08, 2-chloro-N-{[3-(difluoromethyl)-1,2-oxazol-5-yl]methyl}acetamide]
- viability at 48 h, 25 µM: 5.77%

SMILES: CC(Cl)C(=O)N1CCCC(n2ncc(N(C)C(C)C)cc2=O)C1 (stereo not drawn) [6-H09, 2-[1-(2-chloropropanoyl)piperidin-3-yl]-5-[methyl(propan-2-yl)amino]-2,3-dihydropyridazin-3-one]
- viability at 48 h, 25 µM: 97.3%

SMILES: CC(Cl)C(=O)Nc1ccccc1Sc1ccccc1 (stereo not drawn) [6-H10, 2-chloro-N-[2-(phenylsulfanyl)phenyl]propanamide]
- viability at 48 h, 25 µM: 116%

SMILES: CN(CCNC(=O)CCl)S(=O)(=O)c1cccs1 [6-H11, 2-chloro-N-[2-(N-methylthiophene-2-sulfonamido)ethyl]acetamide]
- viability at 48 h, 25 µM: 11.1%

SMILES: CN(C)S(=O)(=O)c1ccc(Cl)c(NC(=O)CCl)c1 [6-H12, 2-chloro-N-[2-chloro-5-(dimethylsulfamoyl)phenyl]acetamide]
- viability at 48 h, 25 µM: 0.99%

SMILES: CC(Cl)C(=O)NC(C)c1nnc2n1CCCC2 (stereo not drawn) [6-H13, 2-chloro-N-(1-{5H,6H,7H,8H-[1,2,4]triazolo[4,3-a]pyridin-3-yl}ethyl)propanamide]
- viability at 48 h, 25 µM: 105%

SMILES: CC(Cl)C(=O)NCc1cc(C(F)F)nn1C (stereo not drawn) [6-H14, 2-chloro-N-{[3-(difluoromethyl)-1-methyl-1H-pyrazol-5-yl]methyl}propanamide]
- viability at 48 h, 25 µM: 108%

SMILES: Cc1nsc(N2CCN(C(=O)C(C)Cl)CC2)c1C#N (stereo not drawn) [6-H15, 5-[4-(2-chloropropanoyl)piperazin-1-yl]-3-methyl-1,2-thiazole-4-carbonitrile]
- viability at 48 h, 25 µM: 91.4%

SMILES: CCc1ccc(OC(C)C(=O)N2CCN(C(=O)C(C)Cl)CC2)cc1 (stereo not drawn) [6-H16, 1-[4-(2-chloropropanoyl)piperazin-1-yl]-2-(4-ethylphenoxy)propan-1-one]
- viability at 48 h, 25 µM: 105%

SMILES: CC(Cl)C(=O)N1CCN(CCOc2ccc3c(c2)CCC3)CC1 (stereo not drawn) [6-H17, 2-chloro-1-{4-[2-(2,3-dihydro-1H-inden-5-yloxy)ethyl]piperazin-1-yl}propan-1-one]
- viability at 48 h, 25 µM: 3.42%

SMILES: CC1CC(c2ccccc2F)N(C(=O)C(C)Cl)C1 (stereo not drawn) [6-H18, 2-chloro-1-[2-(2-fluorophenyl)-4-methylpyrrolidin-1-yl]propan-1-one]
- viability at 48 h, 25 µM: 116%

SMILES: CC(Cl)C(=O)N1Cc2ccccc2OC(C)(C)C1 (stereo not drawn) [6-H19, 2-chloro-1-(2,2-dimethyl-2,3,4,5-tetrahydro-1,4-benzoxazepin-4-yl)propan-1-one]
- viability at 48 h, 25 µM: 91%

SMILES: CC(Cl)C(=O)NCC1c2ccccc2C(=O)N1Cc1ccccc1 (stereo not drawn) [6-H20, N-[(2-benzyl-3-oxo-2,3-dihydro-1H-isoindol-1-yl)methyl]-2-chloropropanamide]
- viability at 48 h, 25 µM: 107%

SMILES: CC(Cl)C(=O)NC1CCC(C)(C)c2ccccc21 (stereo not drawn) [6-H21, 2-chloro-N-(4,4-dimethyl-1,2,3,4-tetrahydronaphthalen-1-yl)propanamide]
- viability at 48 h, 25 µM: 100%

SMILES: CC(Cl)C(=O)N1CCOCC(n2cccn2)C1 (stereo not drawn) [6-H22, 2-chloro-1-[6-(1H-pyrazol-1-yl)-1,4-oxazepan-4-yl]propan-1-one]
- viability at 48 h, 25 µM: 105%

SMILES: COc1cccc(NC(=O)C(C)Cl)c1 (stereo not drawn) [6-I03, 2-chloro-N-(3-methoxyphenyl)propanamide]
- viability at 48 h, 25 µM: 105%

SMILES: CC(Cl)C(=O)NCc1ccc(Cl)cc1 (stereo not drawn) [6-I04, 2-chloro-N-[(4-chlorophenyl)methyl]propanamide]
- viability at 48 h, 25 µM: 107%

SMILES: Cc1ccc2nc(-c3ccc(NC(=O)CCl)cc3)sc2c1 [6-I05, 2-chloro-N-[4-(6-methyl-1,3-benzothiazol-2-yl)phenyl]acetamide]
- viability at 48 h, 25 µM: 3.47%

SMILES: COC(=O)C1(NC(=O)CCl)CC1 [6-I06, methyl 1-(2-chloroacetamido)cyclopropane-1-carboxylate]
- viability at 48 h, 25 µM: 101%

SMILES: O=C(CCl)NCC1(c2ccccc2)CCOCC1 [6-I07, 2-chloro-N-[(4-phenyloxan-4-yl)methyl]acetamide]
- viability at 48 h, 25 µM: 89.3%

SMILES: Cc1nn(-c2ccccc2)c(C)c1CNC(=O)CCl [6-I08, 2-chloro-N-[(3,5-dimethyl-1-phenyl-1H-pyrazol-4-yl)methyl]acetamide]
- viability at 48 h, 25 µM: 2.35%

SMILES: N#Cc1c(NC(=O)CCl)oc(-c2cccs2)c1-c1cccs1 [6-I09, 2-chloro-N-[3-cyano-4,5-bis(thiophen-2-yl)furan-2-yl]acetamide]
- viability at 48 h, 25 µM: 28.5%

SMILES: Cc1c(Cl)cccc1NC(=O)C(C)Cl (stereo not drawn) [6-I10, 2-chloro-N-(3-chloro-2-methylphenyl)propanamide]
- viability at 48 h, 25 µM: 110%

SMILES: CCOC(=O)c1c(NC(=O)CCl)sc2c1CCCC2 [6-I11, ethyl 2-(2-chloroacetamido)-4,5,6,7-tetrahydro-1-benzothiophene-3-carboxylate]
- viability at 48 h, 25 µM: 44.9%

SMILES: N#CCCN(C(=O)CCl)c1ccccc1 [6-I12, 2-chloro-N-(2-cyanoethyl)-N-phenylacetamide]
- viability at 48 h, 25 µM: 1.62%

SMILES: CC(Cl)C(=O)N(C)Cc1ccccc1 (stereo not drawn) [6-I13, N-benzyl-2-chloro-N-methylpropanamide]
- viability at 48 h, 25 µM: 105%

SMILES: CC(Cl)C(=O)Nc1cc([N+](=O)[O-])ccc1Cl (stereo not drawn) [6-I14, 2-chloro-N-(2-chloro-5-nitrophenyl)propanamide]
- viability at 48 h, 25 µM: 117%

SMILES: CCn1cc(NC(=O)CCl)cn1 [6-I15, 2-chloro-N-(1-ethyl-1H-pyrazol-4-yl)acetamide hydrochloride]
- viability at 48 h, 25 µM: 10.5%

SMILES: CC(C)c1ccc(CCNC(=O)CCl)cc1 [6-I16, 2-chloro-N-{2-[4-(propan-2-yl)phenyl]ethyl}acetamide]
- viability at 48 h, 25 µM: 71%

SMILES: CC(C)N(c1ccccc1)c1ccc(NC(=O)CCl)cc1 [6-I17, 2-chloro-N-{4-[phenyl(propan-2-yl)amino]phenyl}acetamide]
- viability at 48 h, 25 µM: 0.67%

SMILES: CC(Cl)C(=O)Nc1ncnc2[nH]cnc12 (stereo not drawn) [6-I18, 2-chloro-N-(9H-purin-6-yl)propanamide]
- viability at 48 h, 25 µM: 100%

SMILES: CC(C)C(NC(=O)CCl)c1ccc(F)c(C#N)c1 (stereo not drawn) [6-I19, 2-chloro-N-[1-(3-cyano-4-fluorophenyl)-2-methylpropyl]acetamide]
- viability at 48 h, 25 µM: 1.83%

SMILES: O=C(CCl)Nc1oncc1-c1ccccc1 [6-I20, 2-chloro-N-(4-phenyl-1,2-oxazol-5-yl)acetamide]
- viability at 48 h, 25 µM: 1.45%

SMILES: O=C(CCl)N[C@H]1CCCc2ccccc21 [6-I21, 2-chloro-N-[(1S)-1,2,3,4-tetrahydronaphthalen-1-yl]acetamide]
- viability at 48 h, 25 µM: 24%

SMILES: CCCc1ccc(NC(=O)CCl)cc1 [6-I22, 2-chloro-N-(4-propylphenyl)acetamide]
- viability at 48 h, 25 µM: 0.417%
